Measurements reported in paper PMC11940194, “Synthesis, Antiproliferative Activity, and ADME Profiling of Novel Racemic and Optically Pure Aryl-Substituted Purines and Purine Bioisosteres” (Biomolecules, 2025).

Assays:
Format in all cases: cell-based, human
[1] = system: normal skin fibroblasts (HFF-1); test: Cytotoxicity MTT assay, normal skin fibroblasts; conditions: 72 h incubation, mean ± SD
Description: (§1) The human ATCC tumor cell lines breast adenocarcinoma (MCF7), colorectal carcinoma (HT-29), pancreatic ductal adenocarcinoma (CFPAC-1), hepatocellular carcinoma (HepG2), and normal skin fibroblasts (HFF) derived from ATCC (American Type Culture Collection) were cultured in Dulbecco’s Modified Eagle Medium (DMEM) or Minimum Essential Medium (MEM) supplemented with 10% fetal bovine serum (FBS), 2 mM L-glutamine, 100 U/mL penicillin, and 100 µg/mL streptomycin (Lonza, Basel, Switzerland) in a humidified atmosphere with 5% CO2 at 37 °C. For the experiment, carcinoma cell lines and normal human cell lines were seeded in 96-well microtiter plates at a density of 3000 cells per well and 5000 cells per well, respectively, depending on the doubling time of the specific cell line. The test substances were then added at fivefold, tenfold dilutions (0.01 to 100 µM), freshly prepared in the growth medium on the day of testing, and incubated for a further 72 h. After 72 h of incubation, the growth rate of the cells was determined using the MTT assay according to the manufacturer’s guidelines. […] The IC50 values were calculated from the dose–response curves using linear regression analysis. The experiment was performed in tetraplicates in two individual experiments.
(§2) Newly synthesized compounds were evaluated for their cytotoxic activity in vitro against four human cancer cell lines, including human breast adenocarcinoma (MCF-7), ductal pancreatic adenocarcinoma (CFPAC-1), colorectal carcinoma (HT-29), and hepatocellular carcinoma (HepG2), as well as on non-cancerous skin fibroblasts (HFF-1), to check for non-specific toxicity. Furthermore, 5-Fluorouracil (5-FU) was used as a reference drug. The results are expressed as 50% inhibitory concentration (IC50) values and are listed in Table 2, Table 3, Table 4 and Table 5.

[2] = system: pancreatic ductal adenocarcinoma (CFPAC-1) cells; test: Antiproliferative MTT assay, CFPAC-1; conditions: for IC50: 72 h incubation, MTT, mean ± SD; for SI (CFPAC-1): SI = [IC50 HFF]/[IC50 CFPAC-1]
Description: as §1, §2

[3] = system: hepatocellular carcinoma (HepG2) cells; test: Antiproliferative MTT assay, HepG2; conditions: for IC50: Homo sapiens, HepG2, 72 h, 72 h incubation, MTT, mean ± SD; for SI (HepG2): SI = [IC50 HFF]/[IC50 HepG2]
Description: as §1, §2

[4] = system: breast adenocarcinoma (MCF7) cells; test: Antiproliferative MTT assay, MCF-7; conditions: for IC50: Homo sapiens, MCF7, 72 h incubation, MTT, mean ± SD
Description: as §1, §2

[5] = system: colorectal carcinoma (HT-29) cells; test: Antiproliferative MTT assay, HT-29; conditions: for IC50: 72 h incubation, MTT, mean ± SD; for SI (HT-29): SI = [IC50 HFF]/[IC50 HT-29]
Description: as §1, §2

SMILES	IC50 [1] [µM]	IC50 ([1]; Homo sapiens, HFF-1, 72 h) [µM]	IC50 [2] [µM]	IC50 ([2]; Homo sapiens, CFPAC-1, 72 h) [µM]	IC50 [3] [µM]	SI (HepG2) [3]	IC50 [4] [µM]	SI (MCF-7) ([4]; SI = [IC50 HFF]/[IC50 MCF-7])	IC50 [5] [µM]	IC50 ([5]; Homo sapiens, HT-29, 72 h) [µM]	SI (HT-29) [5]	SI (CFPAC-1) [2]
O=c1[nH]cc(F)c(=O)[nH]1 [Compound 5-FU, 5-Fluorouracil, reference compound]	0.9	0.94	0.1 ± 0.1	0.14 ± 0.1	9 ± 1.3	0.1	1 ± 0.8	0.9	0.2	0.23	4.5	–
OCC(c1ccc(F)cc1)n1cc(Cn2ccc3ccccc32)nn1 (stereo not shown) [Compound 27a, 1-((1-(2-Hydroxy-1-(4-fluorophenyl)ethyl)-1H-1,2,3-triazol-4-yl)methyl)-1H-indole]	–	42 ± 10.5	–	68 ± 12.7	49 ± 2.5	–	51 ± 6.7	–	–	47 ± 16.9	–	0.6
OC(Cn1cc(Cn2ccc3ccccc32)nn1)c1ccc(F)cc1 (stereo not shown) [Compound 27b, 1-((1-(2-Hydroxy-2-(4-fluorophenyl)ethyl)-1H-1,2,3-triazol-4-yl)methyl)-1H-indole]	–	> 100	–	> 100	> 100	–	> 100	–	–	> 100	–	–
OCC(c1ccc(Cl)cc1)n1cc(Cn2ccc3ccccc32)nn1 (stereo not shown) [Compound 28a, 1-((1-(2-Hydroxy-1-(4-chlorophenyl)ethyl)-1H-1,2,3-triazol-4-yl)methyl)-1H-indole]	–	42 ± 4.6	–	30 ± 0.6	32 ± 0.2	–	32	–	–	31 ± 0.9	–	1.4
OC(Cn1cc(Cn2ccc3ccccc32)nn1)c1ccc(Cl)cc1 (stereo not shown) [Compound 28b, 1-((1-(2-Hydroxy-2-(4-chlorophenyl)ethyl)-1H-1,2,3-triazol-4-yl)methyl)-1H-indol]	–	> 100	–	35 ± 19.8	66 ± 2.7	–	35 ± 16.2	–	–	46 ± 18.4	–	>2.9
OCC(c1ccc(C(F)(F)F)cc1)n1cc(Cn2ccc3ccccc32)nn1 (stereo not shown) [Compound 30a, 1-((1-(2-Hydroxy-1-(4-(trifluoromethyl)phenyl)ethyl)-1H-1,2,3-triazol-4-yl)methyl)-1H-indole]	–	34 ± 1.6	–	9 ± 3.3	32 ± 3.6	–	21 ± 1.6	–	–	28 ± 1.9	–	3.7
OC(Cn1cc(Cn2ccc3ccccc32)nn1)c1ccc(C(F)(F)F)cc1 (stereo not shown) [Compound 30b, 1-((1-(2-Hydroxy-2-(4-(trifluoromethyl)phenyl)ethyl)-1H-1,2,3-triazol-4-yl)methyl)-1H-indol]	–	18 ± 0.6	–	27 ± 0.7	65 ± 2.4	–	22 ± 3.4	–	–	51 ± 15.3	–	0.7
OCC(c1ccc(F)cc1)n1cc(Cn2cnc3ccccc32)nn1 (stereo not shown) [Compound 32a, 1-((1-(2-Hydroxy-1-(4-fluorophenyl)ethyl)-1H-1,2,3-triazol-4-yl)methyl)-1H-benzimidazole]	–	> 100	–	> 100	74 ± 0.6	–	98 ± 2.8	–	–	> 100	–	–
OC(Cn1cc(Cn2cnc3ccccc32)nn1)c1ccc(F)cc1 (stereo not shown) [Compound 32b, 1-((1-(2-Hydroxy-2-(4-fluorphenyl)ethyl)-1H-1,2,3-triazol-4-yl)methyl)-1H-benzimidazole]	–	> 100	–	> 100	> 100	–	> 100	–	–	> 100	–	–
OCC(c1ccc(Cl)cc1)n1cc(Cn2cnc3ccccc32)nn1 (stereo not shown) [Compound 33a, 1-((1-(2-Hydroxy-1-(4-chlorophenyl)ethyl)-1H-1,2,3-triazol-4-yl)methyl)-1H-benzimidazole]	–	> 100	–	34 ± 2.3	50 ± 12.8	–	40 ± 1.8	–	–	63 ± 9.8	–	>2.9
OC(Cn1cc(Cn2cnc3ccccc32)nn1)c1ccc(Cl)cc1 (stereo not shown) [Compound 33b, 1-((1-(2-Hydroxy-2-(4-chlorophenyl)ethyl)-1H-1,2,3-triazol-4-yl)methyl)-1H-benzimidazole]	–	64 ± 6.17	–	69 ± 12.1	> 100	–	70 ± 20.5	–	–	> 100	–	0.9
OCC(c1ccc(C(F)(F)F)cc1)n1cc(Cn2cnc3ccccc32)nn1 (stereo not shown) [Compound 35a, 1-((1-(2-Hydroxy-1-(4-(trifluoromethyl)phenyl)ethyl)-1H-1,2,3-triazol-4-yl)methyl)-1H-benzimidazole]	–	> 100	–	27 ± 0.7	59 ± 4.6	–	30 ± 0.9	–	–	61 ± 0.7	–	>3.7
OC(Cn1cc(Cn2cnc3ccccc32)nn1)c1ccc(C(F)(F)F)cc1 (stereo not shown) [Compound 35b, 1-((1-(2-Hydroxy-2-(4-(trifluoromethyl)phenyl)ethyl)-1H-1,2,3-triazol-4-yl)methyl)-1H-benzimidazole]	–	22 ± 18.1	–	36 ± 1.3	67 ± 3.5	–	31 ± 13.7	–	–	67 ± 2.9	–	0.6
OCC(c1ccccc1)n1cc(Cn2cnc3c(Cl)ncnc32)nn1 (stereo not shown) [Compound 36a, 6-Chloro-9-((1-(2-hydroxy-1-phenylethyl)-1H-1,2,3-triazol-4-yl)methyl)-9H-purine]	–	> 100	–	60 ± 0.9	55 ± 2.4	>1.8	53 ± 5.5	–	–	54 ± 7.4	>1.9	–
OC(Cn1cc(Cn2cnc3c(Cl)ncnc32)nn1)c1ccccc1 (stereo not shown) [Compound 36b, 6-Chloro-9-((1-(2-hydroxy-2-phenylethyl)-1H-1,2,3-triazol-4-yl)methyl)-9H-purine]	–	80 ± 14	–	65 ± 18.9	41 ± 10.6	1.9	69 ± 10.6	–	–	61 ± 2.4	1.3	–
OCC(c1ccc(F)cc1)n1cc(Cn2cnc3c(Cl)ncnc32)nn1 (stereo not shown) [Compound 37a, 6-Chloro-9-((1-(2-hydroxy-1-(4-fluorophenyl)ethyl)-1H-1,2,3-triazol-4-yl)methyl)-9H-purine]	–	64 ± 6.3	–	50 ± 12.4	37 ± 12.9	1.7	38 ± 15.7	–	–	41 ± 2.3	1.6	–
OC(Cn1cc(Cn2cnc3c(Cl)ncnc32)nn1)c1ccc(F)cc1 (stereo not shown) [Compound 37b, 6-Chloro-9-((1-(2-hydroxy-2-(4-fluorophenyl)ethyl)-1H-1,2,3-triazol-4-yl)methyl)-9H-purine]	–	59 ± 9.2	–	56 ± 5.5	54 ± 6	1.1	49 ± 9.9	–	–	46 ± 9.9	1.3	–
OCC(c1ccc(Cl)cc1)n1cc(Cn2cnc3c(Cl)ncnc32)nn1 (stereo not shown) [Compound 38a, 6-Chloro-9-((1-(2-hydroxy-1-(4-chlorophenyl)ethyl)-1H-1,2,3-triazol-4-yl)methyl)-9H-purine]	–	41 ± 16.3	–	48 ± 4.9	34 ± 4.2	1.2	24 ± 8.8	–	–	33 ± 6.06	1.2	–
